Measured values taken from patent publication US10906946B2, “Thrombin inhibitors” (priority 2015, dated 2021).
Read-outs that look alike come from different tables or passages of the source. Ends that are not written are not given here. Peptide text beside a SMILES is read from it.

Assays:
human α-thrombin = molecular target: T1, human α-thrombin (Homo sapiens, UniProt P00734); test: Thrombin amidolytic activity assay with chromogenic substrate S2238; assay type: biochemical; conditions: for Ki: various S2238 concentrations
T1 construct: residues in the termini of the light chain; purchased Chemo-Sero-Therapeutic Research Institute (Kaketsuken, Japan), as a gift, not bought
Experimental: Thrombin amidolytic activity assays for all peptides were performed in 96-wells microtiter plates in 50 mM Tris buffer (pH 7.4) containing 100 mM NaCl and 1 mg/ml bovine serum albumin. […] The rates of formation of p-nitroaniline were followed by measuring the absorbance at 405 nm for 10 min with a Tecan InfinitePro M200 microplate reader from Tecan (Männedorf, Switzerland). Dose-response curves were fitted using the GraphPad Prizm software (San Diego, Calif., USA) to calculate IC50 values and Hill coefficients. To measure the inhibitory constants, different concentrations of S2238 were used and the residual velocities were determined using the Morrison's tight binding equation. Inhibition of thrombin fibrinogenolytic activity of peptides were tested by measuring absorbance at 650 nm using a Sunrise microplate reader from Tecan (Männedorf, Switzerland) as described previously [Koh C Y, et al., J Biol Chem 282: 29101-13 (2007)]. The selectivity of avathrin was examined against 13 serine proteases (FIG. 5). Effects of avathrin on the amidolytic activities of these serine proteases were determined using respective chromogenic substrates. […] Avathrin (150 μM) was incubated with thrombin (5 μM), in 50 mM Tris buffer (pH 7.4) containing 150 mM NaCl and 1 mg/ml BSA. After different incubation times, reactions were quenched with 1% TFA (pH 1.8) and loaded onto a Jupiter Proteo column (4 μm, 90 Å, 100×1.0 mm) attached to a Dionex nano-HPLC system from Thermo Fisher Scientific (Waltham, Mass., USA) and eluted using an acetonitrile gradient with 0.05% TFA and 99.95% MilliQ water as eluent A and 0.05% TFA, 19.95% MilliQ water and 80% ACN as eluent B. Masses of all peaks were measured to identify cleavage products, which were subsequently quantified by integrating the peaks and calculating the area under the curves. To measure the effect of different pre-incubation times on the thrombin inhibitory activity, amidolytic assays were performed for various incubation times (up to 36 h).

[1] = test system: platelets (ADP-induced platelet aggregation); test: Preservation of platelet function in blood tubes (Multiplate, ADP-induced platelet aggregation); assay type: cell-based, human (healthy volunteers); conditions: control tubes (0.109M citrate; >15 μg/ml hirudin), ADP agonist
Experimental: Individual peptides are dissolved in phosphate buffered saline to prepare 10× peptide solutions (ie. concentrations of peptides are 10 times higher than the final concentrations at which they are to be tested). 0.3 ml of the 10× peptide solutions are placed in blood tubes without any additives. Blood was drawn from healthy volunteers using syringes and immediately transferred to a 50 ml conical centrifuge tube (Falcon tube) before pipetting 2.7 ml of the blood into blood tubes with peptide solutions. Final concentrations of peptides are as stated in Table 5 and 6.
Blood tubes with various peptides at different concentrations were left standing at room temperature until tested at designated times. At different time points, tubes were inverted several times and blood samples were taken out for platelet aggregation tests using a Multiplate® Platelet aggregometer with adenosine diphosphate (ADP) as agonist according to manufacturer's recommended protocols.

[2] = IC50 of inhibition of thrombin amidolytic activity, thrombin 0.81 nM, S2238 100 μM, without pre-incubation (0 min) where stated
[3] = inhibitory constant Ki for thrombin, thrombin 0.81 nM
[4] = IC50 (nM), Table 4, members of variegin family

## CC[C@H](C)[C@H](NC(=O)[C@H](C)NC(=O)[C@H](CC(=O)O)NC(=O)[C@H](CC(=O)O)NC(=O)[C@@H]1CCCN1C(=O)[C@@H](NC(=O)[C@H](CCC(=O)O)NC(=O)[C@H](CCC(=O)O)NC(=O)[C@H](Cc1ccccc1)NC(=O)[C@H](CC(=O)O)NC(=O)CNC(=O)[C@@H]1CCCN1C(=O)[C@@H]1CCCN1C(=O)[C@H](C)NC(=O)[C@@H](NC(=O)[C@H](CCCCN)NC(=O)[C@H](Cc1c[nH]cn1)NC(=O)[C@H](CCSC)NC(=O)[C@H](CCCCN)NC(=O)[C@@H]1CCCN1C(=O)[C@H](CCC(=O)O)NC(=O)[C@H](C)NC(=O)[C@H](CCCNC(=N)N)NC(=O)[C@@H](NC(=O)[C@H](C)NC(=O)[C@H](CCC(=O)O)NC(=O)[C@H](CC(=O)O)NC(=O)[C@@H](N)CO)C(C)C)[C@@H](C)O)[C@@H](C)CC)C(=O)N[C@@H](CCC(=O)O)C(=O)N[C@@H](CCC(=O)O)C(=O)O [UV004] (H-SDEAVRAEPKMHKTAPPGDFEEIPDDAIEE-OH)
Human α-thrombin; [2]
  IC50: 0.46 ± 0.08 nM
Human α-thrombin; [3]
  Ki: 0.00455 ± 0.00037 nM

## CC[C@H](C)[C@H](NC(=O)[C@H](C)NC(=O)[C@H](CCCNC(=N)N)NC(=O)[C@@H](NC(=O)[C@H](C)NC(=O)[C@H](CCC(=O)O)NC(=O)[C@H](CC(=O)O)NC(=O)[C@@H](N)CO)C(C)C)C(=O)N1CCC[C@H]1C(=O)N[C@@H](CCCCN)C(=O)N[C@@H](CCSC)C(=O)N[C@@H](Cc1ccc(O)cc1)C(=O)N[C@@H](CO)C(=O)N[C@H](C(=O)N[C@@H](C)C(=O)N1CCC[C@H]1C(=O)N1CCC[C@H]1C(=O)NCC(=O)N[C@@H](CC(=O)O)C(=O)N[C@@H](Cc1ccccc1)C(=O)N[C@@H](CCC(=O)O)C(=O)N[C@@H](CCC(=O)O)C(=O)N[C@H](C(=O)N1CCC[C@H]1C(=O)N[C@@H](CCC(=O)O)C(=O)N[C@@H](CCC(=O)O)C(=O)N[C@@H](Cc1ccc(O)cc1)C(=O)N[C@@H](CC(C)C)C(=O)N[C@@H](CC(=O)O)C(=O)N[C@@H](CC(=O)O)C(=O)N[C@@H](CCC(=O)O)C(=O)N[C@@H](CO)C(=O)O)[C@@H](C)CC)[C@@H](C)O [UV005]
Human α-thrombin
  fold drop in affinity for thrombin compared to ultravariegin: around 3.6 fold
Human α-thrombin; IC50 of inhibition of thrombin amidolytic activity, FIG. 17 legend
  IC50: 0.91 ± 0.47 nM
Human α-thrombin; [3]
  Ki: 0.016 ± 0.00305 nM

## CC[C@H](C)[C@H](NC(=O)[C@H](C)NC(=O)[C@H](CC(=O)O)NC(=O)[C@H](CC(=O)O)NC(=O)[C@@H]1CCCN1C(=O)[C@@H](NC(=O)[C@H](CCC(=O)O)NC(=O)[C@H](CCC(=O)O)NC(=O)[C@H](Cc1ccccc1)NC(=O)[C@H](CC(=O)O)NC(=O)CNC(=O)[C@@H]1CCCN1C(=O)[C@@H]1CCCN1C(=O)[C@H](C)NC(=O)[C@@H](NC(=O)[C@H](CO)NC(=O)[C@H](Cc1ccc(O)cc1)NC(=O)[C@@H](N)CCSC)[C@@H](C)O)[C@@H](C)CC)C(=O)N[C@@H](CCC(=O)O)C(=O)N[C@@H](CCC(=O)O)C(=O)O [UV011] (H-MYSTAPPGDFEEIPDDAIEE-OH)
Human α-thrombin
  fold better Ki than avathrin C-terminal cleavage product IS20: around 4 fold
  fold better Ki than variegin C-terminal cleavage product MH22: around 10 fold
Human α-thrombin; [2]
  IC50: 1.66 ± 0.77 nM
Human α-thrombin; [3]
  Ki: 1.39 ± 0.23 nM

## CC[C@H](C)[C@H](NC(=O)[C@H](CCC(=O)O)NC(=O)[C@H](CC(=O)O)NC(=O)[C@H](CC(=O)O)NC(=O)[C@@H]1CCCN1C(=O)[C@@H](NC(=O)[C@H](CCC(=O)O)NC(=O)[C@H](CCC(=O)O)NC(=O)[C@H](Cc1ccccc1)NC(=O)[C@H](CC(=O)O)NC(=O)CNC(=O)[C@@H]1CCCN1C(=O)[C@@H]1CCCN1C(=O)[C@H](C)NC(=O)[C@@H](NC(=O)[C@H](CO)NC(=O)[C@H](Cc1ccc(O)cc1)NC(=O)[C@H](CCSC)NC(=O)[C@H](CCCCN)NC(=O)[C@@H]1CCCN1C(=O)[C@@H](NC(=O)[C@H](C)NC(=O)[C@H](CCCNC(=N)N)NC(=O)[C@@H](NC(=O)[C@H](C)NC(=O)[C@H](CCC(=O)O)NC(=O)[C@H](CC(=O)O)NC(=O)[C@@H](N)CO)C(C)C)[C@@H](C)CC)[C@@H](C)O)[C@@H](C)CC)C(=O)N[C@@H](CCC(=O)O)C(=O)N[C@@H](CCC(=O)O)C(=O)O [UV012] (H-SDEAVRAIPKMYSTAPPGDFEEIPDDEIEE-OH; N-terminus and C-terminus assumed)
Human α-thrombin
  fold drop in affinity for thrombin compared to ultravariegin: 5 fold

## O=C(O)CC(O)(CC(=O)O)C(=O)O [citrate, reference compound]
[1]; 1.5 h
  Multiplate AUC (U): 37 U
[1]; 4 h
  Multiplate AUC (U): 32.2 U
[1]; 24 h
  Multiplate AUC (U): 12.9 U
[1]; 48 h
  Multiplate AUC (U): 1.4 U
[1]; 72 h
  Multiplate AUC (U): 0.7 U

## ELESGDEDSEGGDSQSSPTESAAPRLHQREGGGGDFENVEYDQDQK [Amblyomma maculatum]
Human α-thrombin; [4]
  IC50: 130 ± 1.74 nM

## SDVAPADYESDEGDNDGGHDGSEVAKPKMPRGNGGGGDFEEIPEVE [Rhipicephalus sanguineus]
Human α-thrombin; Table 4, members of variegin family, read-out: IC50
  IC50: 42.4 ± 0.62 nM
Human α-thrombin; thrombin 0.81 nM, read-out: inhibitory constant Ki for thrombin
  Ki: 8.79 ± 0.65 nM

## TGSDDDDEYDMYESDGDSNEGNDNDEFETAVPRLPNPNSGRDSEHIPMPVN [Hyalomma marginatum rufipes]
Human α-thrombin; [4]
  IC50: 32.5 ± 3.94 nM
Human α-thrombin; [3]
  Ki: 6.13 ± 0.39 nM

## hirudin [reference compound]
[1]; 1.5 h
  Multiplate AUC (U): 69.5 U
[1]; 4 h
  Multiplate AUC (U): 50.2 U
[1]; 24 h
  Multiplate AUC (U): 36.2 U
[1]; 48 h
  Multiplate AUC (U): 29.1 U
[1]; 72 h
  Multiplate AUC (U): 26.9 U
